# Reference: US8629180B2, “Antiseptic agent composition” (Taiyo Corporation, priority 2009, dated 2014)
# Columns and labels:
# [1] = test system: E. coli; experiment: Antiseptic and bactericidal effect found by the applicant (background); type: cell-based; conditions: background statement, the present applicant has found
# [2] = test system: S. aureus; experiment: as above; type: cell-based; conditions: background statement, the present applicant has found
substance,measurement,setting,value
glycerin ricinoleic acid monoester,antiseptic and bactericidal effect on E. coli (in words),[1],almost no antiseptic and bactericidal effect
same,antiseptic and bactericidal effects on S. aureus (in words),[2],exerts antiseptic and bactericidal effects
